Legend:
C3H mice = experiment: Mouse experiment: hair growth after topical administration; type: in vivo; conditions: for day of topical administration on which the skin became black / day on which hair growth was observed: 20 μl/mouse topical twice/day
Description: A. Mouse Experiment: TMI-105795 is Used as Test Compound in the Experiment
The tested compound (TMI-105795) is sub-packaged into dose volume and kept at −20° C. before use. All tested compounds (including solvents) are labeled as TDM-001-1, TDM-001-2, TDM-001-3 and TDM-001-4.
Female C3H mice (35-39 days after birth at arrival) were obtained from Beijing Vital River Laboratory Animal Technology Co., Ltd. The mice were selected for inclusion based upon acceptable clinical condition and body weight. Animals were housed randomly 5 mice per cage before grouping. All mice were kept at least one week in acclimation in the animal facility prior to any procedures. Animal identification number was labeled on the tail and cage tag respectively.
The test compound is TMI-105795 (solvent is polyethylene glycol/ethanol (30/70)), it is sub-packaged into dose volume and kept in −20° C. before use. It was topically administered together with solvent twice every day at 9:30 am and 4:00 pm.
Hair growth grade, peripheral hair growth, scaling, erythema will be scored on Monday, Wednesday and Friday from the beginning on the Day 1 to the termination of the experiment.
All experimental mice were carefully dipped with the hair on the back of the rear leg with shaver. Care must be taken to avoid any irritation to the skin on the back of mouse. Skin color on the back was confirmed again. All mice must show pink skin, any mice that show signs of skin abrasion were excluded from the experiment. Mice were randomly divided into 5 groups and housed individually.
Body weight of each mouse is recorded before administration every morning. 20 μl corresponding solution is aspirated by pipette and applied to shaving area on the back of the mouse, and then the drug solution is uniformly applied to the back between rear legs with tips, about a region with a diameter of 1 cm. It is ensured that the administered region is the same one every day, and the mouse is put into the case after drying of liquid.
All mice are scored on Monday Wednesday and Friday each week from the beginning on the Day 1 to the termination of the study, using the following scoring guidelines:
a. Hair Growth Grade (Administration Area):
0=No color change, or hair growth on the skin
1=Skin color changes uniformly over the administration area from pink to gray/black with no visible hair growth;
2=Appearance of short and sparse hair growth;
3=Full thick hair growth similar to the surrounding normal hair coat.
b. Peripheral Hair Growth (Defined as Hair Growth that is in the Dipped Area, but not in the Administration Area):
0=No color change, or hair growth on the skin;
1=Skin color changes to gray/black with no visible hair growth;
2=Peripheral sparse hair growth;
3=Peripheral thick hair growth.

Thyroid Receptor TRβ = molecular target: T1, Thyroid Receptor TRβ (Homo sapiens, UniProt P10828); experiment: Thyroid Receptor TRβ Agonist Assay (luciferase reporter gene, co-transfected HEK-293 cells); type: cell-based; conditions: TRβ plasmid + thyroid hormone response element luciferase reporter in HEK-293 cells; 24 hours; maximum concentration 10 μM
T1 construct: expressed in transfected cells; host or cells: HEK-293
T1 sequence (P10828 1-461): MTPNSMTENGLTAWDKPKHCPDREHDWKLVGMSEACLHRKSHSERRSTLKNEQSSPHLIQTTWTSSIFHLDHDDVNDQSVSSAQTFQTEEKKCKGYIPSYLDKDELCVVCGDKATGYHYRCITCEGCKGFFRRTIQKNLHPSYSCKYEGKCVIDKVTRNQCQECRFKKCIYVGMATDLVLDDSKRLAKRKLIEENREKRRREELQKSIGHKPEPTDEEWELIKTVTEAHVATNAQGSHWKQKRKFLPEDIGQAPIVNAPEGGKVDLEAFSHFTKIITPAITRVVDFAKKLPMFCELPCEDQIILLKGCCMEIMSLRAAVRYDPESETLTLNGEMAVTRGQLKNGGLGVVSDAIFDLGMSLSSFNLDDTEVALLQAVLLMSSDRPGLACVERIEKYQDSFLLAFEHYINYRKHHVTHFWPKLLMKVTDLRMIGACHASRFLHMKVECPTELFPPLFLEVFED
Description: B: Thyroid Receptor TRβ Agonist Assay
(2) The residual poly-D-lysine is removed. On the 96-well plate, HEK-293 cells are plated at a density of 4.0×10^4 cells/well in DMEM medium containing 10% FBS. The cells are cultured at 37° C. overnight.
(1) The culture medium is removed 2 hours before transfection. 100 μl of DMEM culture medium containing 10% FBS treated by activated carbon is added to each well, and incubated at 37° C. for 2 hours.
3. For each reaction system, 50 ng thyroid receptor (TRβ) plasmid DNA and 50 ng luciferase reporter gene plasmid DNA of thyroid hormone response element are added. Mixing it completely by gentle pipeting.
4. 0.2 μl of transfection reagent X-tremeGENE HP is added to the diluted co-transfected DNA mixture. Mixing it completely by gentle pipeting.
(3) 10 μl of the complex is added to each well in a 96 well plate. Gently shaking the culturing plate to evenly distribute the complex.
(4) The culture is incubated at 37° C. for 24 hours.
(1) Preparation of compound diluent: for each compound, half-log dilutions of each test compound is prepared using DMEM medium containing 10% charcoal stripped FBS (containing 0.1% DMSO), with a maximum concentration of 10 μM of the test compound.
(2) Removing the culture medium and adding the formulated compound diluent (the final DMSO concentration is 0.1%).
(3) For blank control, DMEM medium containing 10% charcoal stripped FBS (containing 0.1% DMSO) is added.
(4) Incubating at 37° C. for 24 hours.
(1) Removing the culture medium, adding 40 μl phosphate (PBS) buffer to each well.
(2) Adding 40 μl Bright-Glo reagent to each well and vortexing for 30 seconds, followed by incubation in dark for 2 min.
(3) Transferring 70 μl cell lysate from each well into a white polystyrene 96-well plate.
(4) Detecting the Luciferase signal intensity by Envision.

[1] = all treatment groups, 3 weeks topical administration

SMILES	EC50 (Thyroid Receptor TRβ)	further results
O=C(NO)C(=O)Nc1cc(Cl)c(Oc2ccc(O)c(CN3Cc4ccccc4C3)c2)c(Cl)c1 [TMI-105961, N1-(3,5-dichloro-4-(4-hydroxy-3-(isoindolin-2-methyl)phenoxy)phenyl)-N2-oxalyl hydroxylamine]	9.24 µM	
CN1CCN(Cc2cc(Oc3c(Cl)cc(NC(=O)C(=O)NO)cc3Cl)ccc2O)CC1 [TMI-105957, N1-(3,5-dichloro-4-(4-hydroxy-3-(4-methylpiperazine-1-methyl)phenoxy)phenyl)-N2-oxalyl hydroxylamine]	8.76 µM	
O=C(NO)C(=O)Nc1cc(Cl)c(Oc2ccc(O)c(Cc3ccc(Cl)c(Cl)c3)c2)c(Cl)c1 [TMI-105905, N1-(3,5-dichloro-4-(3-(3,4-dichlorobenzyl)-4-hydroxyphenoxy)phenyl)-N2-oxalyl hydroxylamine]	0.4 µM	
O=C(NO)C(=O)Nc1cc(Cl)c(Oc2ccc(O)c(CN3CCC(Cc4ccccc4)CC3)c2)c(Cl)c1 [TMI-105959]	0.617 µM	
O=C(NO)C(=O)Nc1cc(Cl)c(Oc2ccc(O)c(CN3CCC(O)CC3)c2)c(Cl)c1 [TMI-105956]	6.52 µM	
O=C(NO)C(=O)Nc1cc(Cl)c(Oc2ccc(O)c(CN3CCc4ccccc4C3)c2)c(Cl)c1 [TMI-105962, N1-(3,5-dichloro-4-(3-(3,4-dihydroisoquinolin-2(1H)-methyl)-4-hydroxyphenoxy)phenyl)-N2-oxalyl hydroxylamine]	3.72 µM	
O=C(NO)C(=O)Nc1cc(Cl)c(Oc2ccc(O)c(CN3CCCC3)c2)c(Cl)c1 [TMI-105958, N1-(3,5-dichloro-4-(4-hydroxy-3-(methylpyrrolidin-1-methyl)phenoxy)phenyl)-N2-oxalyl hydroxylamine]	9.7 µM	
O=C1CN(Cc2cc(Oc3c(Cl)cc(NC(=O)C(=O)NO)cc3Cl)ccc2O)CCN1 [TMI-105963]	9.58 µM	
O=C(NO)C(=O)Nc1cc(Cl)c(Oc2ccc(O)c(CN3CCOCC3)c2)c(Cl)c1 [TMI-105906, N1-(3,5-dichloro-4-(4-hydroxy-3-(morpholinomethyl)phenoxy)phenyl)-N2-oxalyl hydroxylamine]	0.925 µM	

Stronger by EC50 (Thyroid Receptor TRβ), values ahead:

EC50 (Thyroid Receptor TRβ)	SMILES	further results
0.25 µM	CS(=O)(=O)c1ccc(Cc2cc(Oc3c(Cl)cc(NC(=O)C(=O)NO)cc3Cl)ccc2O)cc1 [TMI-105902, N1-(3,5-dichloro-4-(3-(4-methylsulphonylbenzyl)-4-hydroxyphenoxy)phenyl)-N2-oxalyl hydroxylamine]	
0.179 µM	O=C(NO)C(=O)Nc1cc(Cl)c(Oc2ccc(O)c(Cc3ccc(F)cc3)c2)c(Cl)c1 [TMI-105795, N1-(3,5-dichloro-4-(3-(4-fluorobenzyl)-4-hydroxyphenoxy)phenyl)-N2-oxalyl hydroxylamine]	day of topical administration on which the skin became black (C3H mice; TDM-001-2 group, 0.005% (w/v)): 12 days; day on which hair growth was observed (C3H mice; TDM-001-2 group, 0.005% (w/v)): 16 days; day of topical administration on which the skin became black (C3H mice; TDM-001-3 group, 0.01% (w/v)): 2 days; day on which hair growth was observed (C3H mice; TDM-001-3 group, 0.01% (w/v)): 6 days; day of topical administration on which the skin became black (C3H mice; TDM-001-4 group, 0.05% (w/v)): 2 days; day on which hair growth was observed (C3H mice; TDM-001-4 group, 0.05% (w/v)): 8 days; body weight change during administration (C3H mice; all groups, 3 weeks topical administration): would not induce the loss of animal body weight; erythema of the skin (C3H mice; [1]): not observed; scaling of the skin (C3H mice; [1]): not observed; promoting hair growth compared with solvent group (C3H mice; female C3H mice, topical, twice/day, 5 days/week for 3 weeks, every dosing amount (0.005%, 0.01%, 0.05% w/v)): positive result in promoting hair growth; dose dependence of hair growth effect (C3H mice; female C3H mice, topical, 0.005%, 0.01%, 0.05% (w/v)): dose dependent effect is observed
0.136 µM	Cc1ccc(Cc2cc(Oc3c(Cl)cc(NC(=O)C(=O)NO)cc3Cl)ccc2O)cc1 [TMI-105903, N1-(3,5-dichloro-4-(3-(4-methylbenzyl)-4-hydroxyphenoxy)phenyl)-N2-oxalyl hydroxylamine]	
0.096 µM	O=C(NO)C(=O)Nc1cc(Cl)c(Oc2ccc(O)c(Cc3cccc(F)c3)c2)c(Cl)c1 [TMI-105965]	
0.0611 µM	O=C(NO)C(=O)Nc1cc(Cl)c(Oc2ccc(O)c(Cc3ccccc3F)c2)c(Cl)c1 [TMI-105966]	

Reference: US9920022B2, “Small molecule compound and synthesizing method and uses thereof” (TECHNODERMA MEDICINES PTE LTD., priority 2014, dated 2018)
